Reference: paper PMC4821601, “The Interactions of P-Glycoprotein with Antimalarial Drugs, Including Substrate Affinity, Inhibition and Regulation” (PLoS ONE, 2016)
Read-outs that look alike come from different tables or passages of the source. Marks after values point to notes of the source that are not given here.

How the values were obtained:
Caco-2 cell monolayers = assay: Bidirectional transport (Papp, efflux ratio) of antimalarials through Caco-2 cell monolayers; assay type: in vitro ADME, human
Protocol: (§1) The initial experiments were conducted in mid-40s passage cells and repeated in early 80s passage Caco-2 cells. […] In order to maintain equivalent transport medium (HBSS/HBSS with inhibitor) level both outside and inside the chambers, 300 μL was used as medium in the apical chambers and 600 μL in the basolateral chambers. […] Drugs were co-incubated with MRCP, BCRP and ATP hydrolysis blockers to determine the involvement of other efflux mechanisms. Prior to the experiment, the transport medium, HBSS or HBSS with P-gp inhibitors were pre-incubated with the cells for 30 minutes. Following incubation, inserts were placed in new well plates and donor chamber is replaced with drug or drug with inhibitor and the receiver chamber with blank HBSS or HBSS with inhibitor. Transport medium was collected from the receiver chamber after stirring at time intervals of 30, 60, 90 and 120 minutes and was replaced with the same volume of fresh HBSS, or HBSS with inhibitor, when P-gp inhibitors were used in the study. At the end of the experiment 100 μL of medium was removed from the donor chamber in addition to medium collected from the receiver chamber during the study. The cells were then washed thoroughly in cold (4°C) PBS and cell membranes attached to the inserts were sonicated for 10 minutes in a sonicating water bath and centrifuged at 10,000 g for 10 minutes. Supernatant was frozen at -80°C until assayed. […] CL.vol=[…].vol = clearance volume (mL), n = time (min), Aa = amount in acceptor compartment at time n (pmols), Cd0 = concentration in donor compartment at time zero (nM), Vd = volume of the donor compartment (mL), Ca = concentration in acceptor compartment at the previous time point (nM), Vs = sample volume of previous time point (mL), Ac = amount of compound associated with the cells (pmol), Nfin = final time point (min). […] The cleared volume was plotted against time and the slope of the regression line was divided by the surface area to obtain the Papp values. […] The method from Davis and colleagues was adopted with slight modifications. Separations were performed using an Apollo C18 (5 μm, 4.6x150mm) column attached to a matched guard column (5 μm, 4.6x5.5 mm). […] The injection volume was 40 μL and column oven was maintained at 35°C. The analytes were detected at 222 nm and the retention time was 5.6 minutes. Assay developed by Pussard and co-workers were used and slight modifications were done to adjust laboratory conditions. Separation was done using a Prevail C18 (3 μm, 4.6x150mm) column attached to a Direct-connect^TM universal column prefilter. The mobile phase consisted of 20 mM (w/v) KH2PO4 in deionized water at pH 3.0 and acetonitrile (82:18) v/v. […] The injection volume was 40 μL and column oven was maintained at 30°C. The analytes were detected at 343 nm with a retention time of 2.4 minutes. […] Separations were performed using an Apollo C18 (5 μm, 4.6x150mm) column attached to matched guard column (5 μm, 4.6x5.5mm). […] The injection volume was 40 μL and column oven was maintained at 30°C. The analytes were detected at 660 nm with a retention time of 3.8 minutes. A 40 μL sample was spiked with 5 μL 0.5 mM artemisinin internal standard. […] The pipettor was adjusted to the maximum volume (100 μL). […] Pre-treated samples were loaded into the tips by gently aspirating and discarding into the same vial. The process was repeated 10 times in order to increase binding efficiency of drugs to the OMIX 96 C4 matrix. […] The LC-MS method described by […] and co-workers were modified to suit the LC-MS-MS conditions. […] Wexford, Ireland) at 40°C. […] Quantitation was performed in multiple reactions monitoring, MRM mode, using DUIS (ESI^+ and APCI^+) ion sources. […] The optimized mass spectra were acquired with an interface voltage of 4.5 kV, a detector voltage of 1.0 kV, a heat block temperature of 500°C and a desolvation temperature of 160°C.

[1] = as above; assay type: in vitro ADME, human; conditions: human; for Papp at 120 min: Caco-2, Caco-2 monolayers
Protocol: as §1

In the case of OC(c1cc(C(F)(F)F)nc2c(C(F)(F)F)cccc12)C1CCCCN1 (centres unmarked) [MQ, mefloquine], the Net flow direction (Caco-2 cell monolayers; Conc (μM) + inhibitor (μM): 10) is reported as “Diffusion (0.02) ^*”, the Net flow direction (Caco-2 cell monolayers; Conc (μM) + inhibitor (μM): 20) is reported as “Diffusion (0.66)” and the Net flow direction (Caco-2 cell monolayers; Conc (μM) + inhibitor (μM): 100) is reported as “Diffusion (0.08)”. For the same compound, the “drug absorption predicted from Papp” value (Caco-2 cell monolayers; based on FDA biopharmaceutical classification system) was 50–84%, the Papp at 120 min ([1]; drug alone, read-out: Ap-Bas directional Papp, range over concentrations tested) was 6 to 10 ×10⁻⁶ cm/s and the Papp at 120 min ([1]; drug alone, read-out: Bas-Ap directional Papp, range over concentrations tested) was 5 to 7 ×10⁻⁶ cm/s. For the same compound, the Papp at 120 min ([1]; read-out: permeability across the gastrointestinal epithelium (class)) was 1 to 25 ×10⁻⁶ cm/s, the Papp at 120 min ([1]; summary in abstract, methylene blue depending on the direction of transport, read-out: permeability) was roughly 10 ×10⁻⁶ cm/s and the efflux ratio at 120 min, 100 µM ([1]; Caco-2, Conc (μM) + inhibitor (μM): 100, Bas-Ap divided by Ap-Bas) was 1.2. It also gave an efflux ratio at 120 min, 10 µM ([1]; Caco-2, Conc (μM) + inhibitor (μM): 10, Bas-Ap divided by Ap-Bas) of 0.7, a Papp at 120 min, 10 µM ([1]; Caco-2, Conc (μM) + inhibitor (μM): 10, first-named drug measured, read-out: Papp Ap-Bas) of 9.9 ± 0.7 ×10⁻⁶ cm/s and a Papp B→A at 120 min, 10 µM ([1]; Caco-2, Conc (μM) + inhibitor (μM): 10, first-named drug measured, read-out: Papp Bas-Ap) of 6.6 ± 0.4 ×10⁻⁶ cm/s. The efflux ratio at 120 min, 20 µM ([1]; Caco-2, Conc (μM) + inhibitor (μM): 20, Bas-Ap divided by Ap-Bas) was 0.9, the Papp at 120 min, 20 µM ([1]; Caco-2, Conc (μM) + inhibitor (μM): 20, first-named drug measured, read-out: Papp Ap-Bas) was 5.8 ± 0.7 ×10⁻⁶ cm/s and the Papp B→A at 120 min, 20 µM ([1]; Caco-2, Conc (μM) + inhibitor (μM): 20, first-named drug measured, read-out: Papp Bas-Ap) was 5.3 ± 0.9 ×10⁻⁶ cm/s. The Papp at 120 min, 100 µM ([1]; Caco-2, Conc (μM) + inhibitor (μM): 100, first-named drug measured, read-out: Papp Ap-Bas) was 8.9 ± 0.7 ×10⁻⁶ cm/s and the Papp B→A at 120 min, 100 µM ([1]; Caco-2, Conc (μM) + inhibitor (μM): 100, first-named drug measured, read-out: Papp Bas-Ap) was 11.4 ± 0.8 ×10⁻⁶ cm/s.
